Experiments:
[1] = target: Cys242 in human PIK3CA (157-299) (Homo sapiens (Human), UniProt P42336); test: Covalent modification assay using MALDI-TOF MS; assay type: biochemical; details: 4 h reaction time point; 3.33 μM protein target, 1:7.5 protein to compound ratio (compounds 1-852)
Summary of the method: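 PIK3CA (157-299), 3.33 or 1 μM in 20 mM HEPES, 150 mM NaCl, 2 mM MgCl2, pH 7.3, was incubated with compound at room temperature in the dark for 15 min, 30 min, 2 h or 4 h. Linear MALDI-TOF read-out; % modification = adduct peak height over summed heights of all protein species.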

pAKT in BT474 cells = test: Cell-based pAKT HTRF assay in BT474 cells; details: BT474 cells; 4 hr incubation; Compounds 10-999; read-out: pAKT inhibition IC50 in BT474 cells
Summary of the method: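 pAKT was measured by HTRF after a 4 hr compound exposure in BT474 cells (DMEM, 10% FBS, 0.25% DMSO), using 9 concentrations from 3 μM in 3-fold steps. Cell lysates were incubated with the Eu cryptate/d2 antibody pair at room temperature for 4 to 24 h. The plate was then read at 320 nm excitation and 615 nm emission.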

Sequence of Cys242 in human PIK3CA (157-299) (P42336 157-299): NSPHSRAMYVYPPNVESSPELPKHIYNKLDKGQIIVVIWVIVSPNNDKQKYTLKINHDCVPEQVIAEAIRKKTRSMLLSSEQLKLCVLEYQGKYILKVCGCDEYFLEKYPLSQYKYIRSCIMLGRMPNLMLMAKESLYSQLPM

IC50 (pAKT in BT474 cells) | SMILES | % of modification [1]
< 100 nM | C=CC(=O)N1CCn2nc(-c3nc(-c4ccc5c(cnn5C)c4)c4ccsc4c3-c3c(F)cc(F)cc3OCCO)cc2[C@@H]1C [Compound 663, 1-((S)-2-((S)-7-(2,4-difluoro-6-(2-hydroxyethoxy)phenyl)-4-(1-methyl-1H-indazol-5-yl)thieno[3,2-c]pyridin-6-yl)-4-methyl-6,7-dihydropyrazolo[1,5-a]pyrazin-5(4H)-yl)prop-2-en-1-one] | A (percent of modification of PIK3CA protein ≥75%)
< 100 nM | C=CC(=O)N1CCn2nc(-c3nc(-c4ccc5c(c4)ncn5C)c4ccsc4c3-c3c(F)cc(F)cc3OCCO)cc2[C@@H]1C [Compound 664, 1-((S)-2-((S)-7-(2,4-difluoro-6-(2-hydroxyethoxy)phenyl)-4-(1-methyl-1H-benzo[d]imidazol-5-yl)thieno[3,2-c]pyridin-6-yl)-4-methyl-6,7-dihydropyrazolo[1,5-a]pyrazin-5(4H)-yl)prop-2-en-1-one] | A (percent of modification of PIK3CA protein ≥75%)
< 100 nM | C=CC(=O)N1Cc2cc(-c3nc(-c4ccc5nn(C)cc5c4)c4ccsc4c3-c3c(F)cc(F)cc3OCCOC)nn2C[C@H]1C [Compound 668, 1-((R)-2-((S)-7-(2,4-difluoro-6-(2-methoxyethoxy)phenyl)-4-(2-methyl-2H-indazol-5-yl)thieno[3,2-c]pyridin-6-yl)-6-methyl-6,7-dihydropyrazolo[1,5-a]pyrazin-5(4H)-yl)prop-2-en-1-one] | A (percent of modification of PIK3CA protein ≥75%)
< 100 nM | C=CC(=O)N1Cc2cc(-c3nc(-c4ccc5c(c4)ncn5C)c4ccsc4c3-c3c(F)cc(F)cc3OCCOC)nn2C[C@H]1C [Compound 669] | A (percent of modification of PIK3CA protein ≥75%)
< 100 nM | C=CC(=O)N1Cc2cc(-c3nc(-c4cncc(C#N)c4)c4ccsc4c3-c3c(F)cc(F)cc3OCCOC)nn2C[C@H]1C [Compound 670] | A (percent of modification of PIK3CA protein ≥75%)
< 100 nM | C=CC(=O)N1CCn2nc(-c3nc(-c4ccc5c(cnn5C)c4)c4ccsc4c3-c3c(F)cc(F)cc3OC[C@@H](C)O)cc2[C@@H]1C [Compound 671] | A (percent of modification of PIK3CA protein ≥75%)
< 100 nM | C=CC(=O)N1CCn2nc(-c3nc(-c4ccc5cnncc5c4)c4ccsc4c3-c3c(F)cc(F)cc3OCCO)cc2[C@@H]1C [Compound 672] | A (percent of modification of PIK3CA protein ≥75%)
100 to 1000 nM | C=CC(=O)N1Cc2cc(-c3nc(-c4cnn(C)c4)c4ccsc4c3-c3c(F)cc(F)cc3OCCO)nn2C[C@H]1C [Compound 673] | D (percent of modification <25%)
< 100 nM | C=CC(=O)N1Cc2cc(-c3nc(-c4cnn(C)c4)c4ccsc4c3-c3c(F)cc(F)cc3OCCO)nn2C[C@H]1C [Compound 674] | A (percent of modification of PIK3CA protein ≥75%)
< 100 nM | C=CC(=O)N1CCn2nc(-c3nc(-c4cncc(C#N)c4)c4ccsc4c3-c3c(F)cc(F)cc3OC[C@@H](C)O)cc2[C@@H]1C [Compound 676] | A (percent of modification of PIK3CA protein ≥75%)
< 100 nM | C=CC(=O)N1CCn2nc(-c3nc(-c4ccc5cnn(C)c5c4)c4ccsc4c3-c3c(F)cc(F)cc3OCC(C)O)cc2C1C (stereo not drawn) [Compound 677] | A (percent of modification of PIK3CA protein ≥75%)
< 100 nM | C=CC(=O)N1CCn2nc(-c3nc(-c4ccc5cnncc5c4)c4ccsc4c3-c3c(F)cc(F)cc3OCC(C)O)cc2C1C (stereo not drawn) [Compound 678] | A (percent of modification of PIK3CA protein ≥75%)
< 100 nM | C=CC(=O)N1Cc2cc(-c3nc(-c4ccc5cnn(C)c5c4)c4ccsc4c3-c3c(F)cc(F)cc3OCC(C)O)nn2C(C)C1 (stereo not drawn) [Compound 680] | A (percent of modification of PIK3CA protein ≥75%)
< 100 nM | C=CC(=O)N1Cc2cc(-c3nc(-c4ccc5oc(C)nc5c4)c4ccsc4c3-c3c(F)cc(F)cc3OCC(C)O)nn2C(C)C1 (stereo not drawn) [Compound 683] | A (percent of modification of PIK3CA protein ≥75%)
< 100 nM | C=CC(=O)N1Cc2cc(-c3nc(-c4cc5n(n4)CCNC5=O)c4ccsc4c3-c3c(F)cc(F)cc3OCCOC)nn2C[C@H]1C [Compound 685] | A (percent of modification of PIK3CA protein ≥75%)
< 100 nM | C=CC(=O)N1Cc2cc(-c3nc(-c4cnc(C)nc4)c4ccsc4c3-c3c(F)cc(F)cc3OCCOC)nn2C[C@H]1C [Compound 686] | A (percent of modification of PIK3CA protein ≥75%)
< 100 nM | C=CC(=O)N1Cc2cc(-c3nc(-c4cnc5c(c4)CN(C)C5=O)c4ccsc4c3-c3c(F)cc(F)cc3OCCOC)nn2C[C@H]1C [Compound 687] | A (percent of modification of PIK3CA protein ≥75%)
< 100 nM | C=CC(=O)N1Cc2cc(-c3nc(-c4cnc5c(c4)CNC(=O)C5)c4ccsc4c3-c3c(F)cc(F)cc3OCCOC)nn2[C@@H](C)C1 [Compound 688] | A (percent of modification of PIK3CA protein ≥75%)

IC50 (pAKT in BT474 cells) | SMILES | % of modification [1]
< 100 nM | C=CC(=O)N1Cc2cc(-c3nc(-c4ccc5ncn(C)c5c4)c4ccsc4c3-c3c(F)cc(F)cc3OCCOC)nn2C[C@H]1C [Compound 689] | A (percent of modification of PIK3CA protein ≥75%)
< 100 nM | C=CC(=O)N1Cc2cc(-c3nc(-c4ccc5cn[nH]c5c4)c4ccsc4c3-c3c(F)cc(F)cc3OCCOC)nn2C[C@H]1C [Compound 690] | A (percent of modification of PIK3CA protein ≥75%)
< 100 nM | C=CC(=O)N1Cc2cc(-c3nc(-c4ccc5c(c4)CNC5=O)c4ccsc4c3-c3c(F)cc(F)cc3OCCOC)nn2C[C@H]1C [Compound 691] | A (percent of modification of PIK3CA protein ≥75%)
< 100 nM | C=CC(=O)N1Cc2cc(-c3nc(-c4ccc5c(c4)N(C)C(=O)C5)c4ccsc4c3-c3c(F)cc(F)cc3OCCOC)nn2C[C@H]1C [Compound 692] | A (percent of modification of PIK3CA protein ≥75%)
< 100 nM | C=CC(=O)N1Cc2cc(-c3nc(-c4ccc5nncn5c4)c4ccsc4c3-c3c(F)cc(F)cc3OCCOC)nn2[C@@H](C)C1 [Compound 693] | A (percent of modification of PIK3CA protein ≥75%)
< 100 nM | C=CC(=O)N1CCn2nc(-c3nc(-c4ccc5ncn(C)c5c4)c4ccsc4c3-c3c(F)cc(F)cc3OCCOC)cc2[C@@H]1C [Compound 702] | A (percent of modification of PIK3CA protein ≥75%)
< 100 nM | C=CC(=O)N1Cc2cc(-c3nc(-c4ccc5[nH]cnc5c4)c4ccsc4c3-c3c(F)cc(F)cc3OCCOC)nn2C[C@H]1C [Compound 720] | A (percent of modification of PIK3CA protein ≥75%)
< 100 nM | C=CC(=O)N1CCn2nc(-c3nc(-c4ccc5c(c4)CCN(C)C5)c4ccsc4c3-c3c(F)cc(F)cc3OC[C@@H](C)O)cc2[C@H]1C [Compound 721] | A (percent of modification of PIK3CA protein ≥75%)
< 100 nM | C=CC(=O)N1Cc2cc(-c3nc(-c4ccn(C)n4)c4ccsc4c3-c3c(F)cc(F)cc3OCCOC)nn2C[C@H]1C [Compound 722] | A (percent of modification of PIK3CA protein ≥75%)
< 100 nM | C=CC(=O)N1Cc2cc(-c3nc(-c4cnn(C5CCC5)c4)c4ccsc4c3-c3c(F)cc(F)cc3OCCOC)nn2C[C@H]1C [Compound 723] | A (percent of modification of PIK3CA protein ≥75%)
< 100 nM | C=CC(=O)N1Cc2cc(-c3nc(-c4cnn(C)c4)c4ccsc4c3-c3c(F)cc(F)cc3OC[C@@H](C)O)nn2C[C@H]1C [Compound 724] | A (percent of modification of PIK3CA protein ≥75%)
< 100 nM | C=CC(=O)N1Cc2cc(-c3nc(-c4ccc5c(cnn5C)c4)c4ccsc4c3-c3c(F)cc(F)cc3OC[C@@H](C)O)nn2C[C@H]1C [Compound 725] | A (percent of modification of PIK3CA protein ≥75%)
< 100 nM | C=CC(=O)N1Cc2cc(-c3nc(-c4cnn(C(C)C)c4)c4ccsc4c3-c3c(F)cc(F)cc3OC[C@@H](C)O)nn2C[C@H]1C [Compound 726] | A (percent of modification of PIK3CA protein ≥75%)
< 100 nM | C=CC(=O)N1Cc2cc(-c3nc(-c4cnn(CC(F)F)c4)c4ccsc4c3-c3c(F)cc(F)cc3OCCOC)nn2C[C@H]1C [Compound 727] | A (percent of modification of PIK3CA protein ≥75%)
100 to 1000 nM | C=CC(=O)N1Cc2cc(-c3nc(-c4cnn(C(C)C)c4)c4ccsc4c3-c3c(F)cc(F)cc3OCCO)nn2[C@@H](C)C1 [Compound 728] | D (percent of modification <25%)
< 100 nM | C=CC(=O)N1Cc2cc(-c3nc(-c4ccc5cn(C)nc5c4)c4ccsc4c3-c3c(F)cc(F)cc3OCCOC)nn2C[C@H]1C [Compound 737] | A (percent of modification of PIK3CA protein ≥75%)
< 100 nM | C=CC(=O)N1Cc2cc(-c3nc(-c4cnn(C(C)(C)CO)c4)c4ccsc4c3-c3c(F)cc(F)cc3OCCOC)nn2C[C@H]1C [Compound 738] | A (percent of modification of PIK3CA protein ≥75%)
< 100 nM | C=CC(=O)N1Cc2cc(-c3nc(-c4ccc5c(cnn5C)c4)c4ccsc4c3-c3c(F)cc(F)cc3OCCOC)nn2[C@@H](C)C1 [Compound 739] | A (percent of modification of PIK3CA protein ≥75%)
